Our source for the melting point values is patent publication US7741495B2, “Indoline-sulfonamides compounds” (Taipei Medical University, priority 2006, dated 2010).

Structures can show the parent of a compound that is named as a salt.

The term melting point denotes the temperature, or range, at which the solid turns liquid. Compound `COc1ccc(S(=O)(=O)N2CCc3cccc(NC(=O)c4ccc([N+](=O)[O-])cc4)c32)cc1` [compound 22, N-[1-(4-Methoxy-benzenesulfonyl)-2,3-dihydro-1H-indol-7-yl]-4-nitro-benzamide] showed a melting point of 151 to 152 °C. Compound `COc1ccc(S(=O)(=O)N2CCc3cccc(NCc4ccccc4)c32)cc1` [compound 34, Benzyl-[1-(4-methoxy-benzenesulfonyl)-2,3-dihydro-1H-indol-7-yl]-amine] had a melting point of 162 to 163 °C.

`COc1ccc(S(=O)(=O)N2CCc3cccc(NC(=O)c4ccncc4)c32)cc1` (as salt: HCl) [compound 26, N-[1-(4-Methoxy-benzenesulfonyl)-2,3-dihydro-1H-indol-7-yl]-isonicotin amide] returned a melting point of 219 to 220 °C. The compound `COc1ccc(S(=O)(=O)N2CCc3cccc(NC(=O)c4cccs4)c32)cc1` [compound 28, Thiophene-2-carboxylic acid [1-(4-methoxy-benzenesulfonyl)-2,3-dihydro-1H-indol-7-yl]-amide] returned a melting point of 188 to 189 °C.

Regarding `COc1ccc(S(=O)(=O)N2CCc3cccc(NS(=O)(=O)c4ccc(F)cc4)c32)cc1` [compound 31, 4-Fluoro-N-[1-(4-methoxy-benzenesulfonyl)-2,3-dihydro-1H-indol-7-yl]-benzenesulfonamide], the melting point fell in the range of 104 to 105 °C. For `COc1ccc(S(=O)(=O)N2CCc3cccc(NC(=O)N(C)c4ccccc4)c32)cc1` [compound 33, 3-[1-(4-Methoxy-benzenesulfonyl)-2,3-dihydro-1H-indol-7-yl]-1-methyl-1-phenyl-urea] the value was 199 to 201 °C; for `COc1ccc(S(=O)(=O)N2CCc3cc(Br)cc(NC(=O)c4ccco4)c32)cc1` [compound 38, Furan-2-carboxylic acid [5-bromo-1-(4-methoxy-benzenesulfonyl) -2,3-dihydro-1H-indol-7-yl]-amide], 170 to 171 °C; for `COc1ccc(S(=O)(=O)N2CCc3cccc(NC(C)=O)c32)cc1` [compound 35, N-[1-(4-Methoxy-benzenesulfonyl)-2,3-dihydro-1H-indol-7-yl]acetamide], 154 to 155 °C.

`COc1ccc(S(=O)(=O)N2CCc3cccc(NC(=O)c4ccccc4)c32)cc1` [compound 20, N-[1-(4-Methoxy-benzenesulfonyl)-2,3-dihydro-1H-indol-7-yl]-benzamide]: the melting point lay in the range of 205 to 206 °C. In turn, `COc1ccc(S(=O)(=O)N2CCc3cccc(NC(=O)c4ccc(C#N)cc4)c32)cc1` [compound 23, 4-Cyano-N-[1-(4-methoxy-benzenesulfonyl)-2,3-dihydro-1H-indol-7-yl]-benzamide] gave a melting point of 179 to 180 °C.

`COc1ccc(S(=O)(=O)N2CCc3cccc(NC(=O)c4ccco4)c32)cc1` [compound 27, Furan-2-carboxylic acid [1-(4-methoxy-benzenesulfonyl)-2,3-dihydro-1H-indol-7-yl]-amide] registered a melting point of 163 to 164 °C. With `COc1ccc(S(=O)(=O)N2CCc3cccc(NC(=O)Oc4ccccc4)c32)cc1`, the melting point lay in the range of 164 to 166 °C. For `COc1ccc(S(=O)(=O)N2CCc3cccc(NC(=O)c4ccc(F)cc4)c32)cc1` [compound 21, 4-Fluoro-N-[1-(4-methoxy-benzenesulfonyl)-2,3-dihydro-1H-indol-7-yl]-benzamide] the value was 184 to 185 °C. Compound `COc1ccc(S(=O)(=O)N2CCc3cccc(NS(=O)(=O)c4ccccc4)c32)cc1` [compound 29, N-[1-(4-Methoxy-benzenesulfonyl)-2,3-dihydro-1H-indol-7-yl]-benzenesulfonamide] returned a melting point of 143 to 145 °C. As to `COc1ccc(S(=O)(=O)N2CCc3cc(Br)cc(NC(=O)c4ccncc4)c32)cc1` [compound 37, N-[5-Bromo-1-(4-methoxy-benzenesulfonyl)-2,3-dihydro-1H-indol-7-yl]-isonicotinamide], the melting point lay in the range of 191 to 192 °C.
